Laboratory results taken from patent publication US10865257B2, “Production methods for aqueous emulsion, fine powder and stretched porous body of modified polytetrafluoroethylene” (AGC Inc., priority 2015, dated 2020).

Test: LogPOW, distribution coefficient in 1-octanol and water (OECD Test Guideline 107, 117; JIS Z7260-107)
Format: physicochemical
Conditions: 1-octanol/water (1:1) distribution coefficient
Description: In the present invention, a fluorinated anionic surfactant having a LogPOW of from 2.4 to 3.4 is used. The LogPOW is a distribution coefficient in 1-octanol and water as stipulated in OECD Test Guideline 107, 117 and Japanese Industrial Standard Z7260-107 (2000).
At the time when a mixed liquid of octanol/water (1:1) each containing a surfactant to be measured, is phase-separated, POW represents a ratio of the surfactant concentration in octanol/the surfactant concentration in water. A surfactant having a large distribution coefficient value has a high bioaccumulation property, and a surfactant having a small distribution coefficient value has a low bioaccumulation property. When the LogPOW is 3.4 or less, the bioaccumulation property is judged to be low. By the measurement conducted by the present inventors, the LogPOW of APFO was 3.67.

Compound	logP
O=C(O)C(F)(F)OC(F)(F)C(F)(F)OC(F)(F)C(F)(F)F [APFDO, ammonium perfluoro-3,6-dioxaoctanoate]	3.1
O=C(O)C(F)(F)C(F)(F)C(F)(F)C(F)(F)C(F)(F)C(F)(F)C(F)(F)F [APFO, ammonium perfluorooctanoate]	3.67
